For one series, the target named is T1, 5-HT1AR (Homo sapiens, UniProt P08908).
T1 sequence (P08908 1-422): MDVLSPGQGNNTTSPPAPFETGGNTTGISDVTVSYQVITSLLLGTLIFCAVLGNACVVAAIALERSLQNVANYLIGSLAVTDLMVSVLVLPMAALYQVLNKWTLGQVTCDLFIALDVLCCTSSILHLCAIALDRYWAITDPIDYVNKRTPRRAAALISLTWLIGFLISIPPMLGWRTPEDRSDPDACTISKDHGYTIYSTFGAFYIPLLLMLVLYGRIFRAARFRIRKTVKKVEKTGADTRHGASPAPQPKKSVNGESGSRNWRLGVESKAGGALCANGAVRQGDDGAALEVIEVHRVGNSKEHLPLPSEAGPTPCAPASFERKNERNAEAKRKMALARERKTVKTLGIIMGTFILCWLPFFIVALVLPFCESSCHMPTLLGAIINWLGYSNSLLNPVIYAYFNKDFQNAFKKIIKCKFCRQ
Briefly: Radioligand binding assay, [3H]-8-OH-DPAT displacement. As to conditions: mean ± SD from two independent measurements; read-out: Ki 5-HT1A. As to the method:
(§1) Cell pellets were thawed and homogenized in 10 vol of assay buffer using an Ultra Turrax tissue homogenizer and centrifuged twice at 35 000 g for 15 min at 4 °C, with incubation for 15 min at 37 °C in between. The composition of the assay buffers was as follows: for 5-HT1AR: 50 mM Tris HCl, 0.1 mM EDTA, 4 mM MgCl2, 10 μM pargyline and 0.1% ascorbate; for 5-HT2AR: 50 mM Tris HCl, 0.1 mM EDTA, 4 mM MgCl2 and 0.1% ascorbate; for 5- HT7bR: 50 mM Tris HCl, 4 mM MgCl2, […] and 0.1% ascorbate; and for dopamine D2LR: 50 mM Tris HCl, 1 mM EDTA, 4 mM MgCl2, 120 mM NaCl, 5 mM KCl, 1.5 mM CaCl2 and 0.1% ascorbate. All assays were incubated in a total volume of […] in 96-well microtiter plates for 1 h at 37 °C, except 5-HT2AR which was incubated at 27 °C. The process of equilibration was terminated by rapid filtration through Unifilter plates with a 96-well cell harvester, and radioactivity retained on the filters was quantified on a Microbeta plate reader (PerkinElmer, USA). For displacement studies, the assay samples contained as radioligands (PerkinElmer, USA): 2.5 nM [^3H]-8-OH-DPAT (135.2 Ci/mmol) for 5-HT1AR; 1 nM [3H]-ketanserin (53.4 Ci/mmol) for 5- HT2AR; 0.8 nM [3H]-5- CT (39.2 Ci/mmol) for 5-HT7R or 2.5 nM [3H]-raclopride (72 Ci/mmol) for D2LR. Nonspecific binding was defined with […] of 5-HT in 5-HT7R binding experiments, whereas […] were used in 5-HT2AR and D2L assays, respectively. Each compound was tested in triplicate at 7 concentrations (10^–10–10^–4 M). The inhibition constants (Ki) were calculated using the Cheng–Prusoff equation.[48] Results were expressed as means of at least two separate experiments.

The target in the next series is dopamine D2LR (Homo sapiens, UniProt P14416). Briefly: Radioligand binding assay, [3H]-raclopride displacement. As to conditions: mean ± SD from two independent measurements; read-out: Ki D2. As to the method: as §1
Chain of dopamine D2LR (P14416 whole entry): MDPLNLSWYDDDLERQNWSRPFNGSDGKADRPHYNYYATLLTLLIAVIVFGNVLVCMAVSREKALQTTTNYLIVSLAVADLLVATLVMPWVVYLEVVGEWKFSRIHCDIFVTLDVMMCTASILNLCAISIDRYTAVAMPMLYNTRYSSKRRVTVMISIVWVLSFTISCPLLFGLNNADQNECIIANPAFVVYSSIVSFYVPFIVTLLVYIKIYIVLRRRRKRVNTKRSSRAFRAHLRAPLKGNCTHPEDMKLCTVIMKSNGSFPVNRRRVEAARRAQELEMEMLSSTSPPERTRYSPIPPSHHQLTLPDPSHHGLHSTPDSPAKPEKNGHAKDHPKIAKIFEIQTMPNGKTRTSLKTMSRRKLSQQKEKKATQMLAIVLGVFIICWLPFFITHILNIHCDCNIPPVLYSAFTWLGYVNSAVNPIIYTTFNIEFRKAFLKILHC
A further series addresses 5-HT2AR (Homo sapiens, UniProt P28223). Description: Radioligand binding assay, [3H]-ketanserin displacement. Particulars: mean ± SD from two independent measurements; read-out: Ki 5-HT2A. As to the method: as §1
In the next series the test system is immobility time. Briefly: Forced swim test (FST, Porsolt's test) in mice. It is filed as in vivo. Particulars: 60 min before test. As to the method:
(§2) The behavioral experiments were performed on male BalbC mice weighing 20–25 g, n = 333. The animals were purchased from the Animal House at the Faculty of Pharmacy, Jagiellonian University Medical College, Krakow, Poland. Mice were kept in groups of ten in Makrolon type 3 cages (dimensions 26.5 × 15 × 42 cm). The animals were kept in an environmentally controlled room (ambient temperature 22 ± 2 °C; relative humidity 50–60%; 12:12 light: dark cycle; and lights on at 8:00). They were allowed to acclimatize with the environment enriched by nesting material, tooth grinding material, houses, and toys for 1 week before commencement of the experiments. During acclimatization, mice were accustomed to the presence of female experimenters and their appropriate manner of animals’ restraint, i.e., cupping each separate mouse in open hands, according to the 3Rs recommendations (handling).[50],[51] Standard laboratory food (Sniff M-Z) and filtered water were freely available. All the experiments were conducted in the light phase between 9 AM and 2 PM. Experimental groups consisted of 6–10 randomly selected animals, depending on the experiment, and each animal was used only once. The experiments were performed by an observer who was unaware of the treatment administered. All the experimental procedures with mice were carried out under EU Directive 2010/63/EU and were approved by the Local Ethics Commission for Animal Experiments of Jagiellonian University in Krakow (Approval nos.:297/2019).
(§3) Compounds were injected once intraperitoneally (i.p.) 60 min before tests, at a volume of 10 mL/kg. Control animals received a vehicle injection according to the same schedule.
The FST experiment was carried out according to the method of Porsolt et al.[52] The total duration of immobility was recorded during the last 4 min of this 6 min period. The reduction of immobility time compared to the control was a measure of antidepressant properties of the tested compound. A mouse was regarded as immobile when it remained floating on water, making only small movements to keep its head above it.

The next series concerns the target T2, NK1 (Homo sapiens, UniProt P25103).
T2 construct: Eurofins Cerep
Briefly: NK1 screening at 1 µM (Eurofins Cerep). It counts as cell-based. As to conditions: read-out: NK1 % inhibition of control agonist response. As to the method:
(§4) 1.In vitro evaluation towards another related protein target (GABA, NK 1)
(§5) Table S2. Affinity results to GABA and NK 1 […]
(§6) Screening at 1 µM Screening at 1 µM
(§7) (% inhibition of control (% of inhibtion of control agonist response) specific binding) […]
(§8) adata are presented as the mean ± SD from two independent measurements
(§9) The above biological screening have been performed at Eurofins Cerep (2, rue du Professeur GARGOUÏL, B.P. 30001, 86 600 Celle l'Evescault, France according to previously described […]
(§10) Tsuji, A. et al. (1988), Antimicrob. Agents Chemother., 32: 190-194.
(§11) Eistetter, H.R. et al. (1992), Glia, 6: 89-95.
(§12) Detailed parameters for NK1 assay:
(§13) Detailed parameters for GABA (non-specific) assay: […]

In the next series the test system is locomotor activity. Description: Spontaneous locomotor activity in mice. It is filed as in vivo. As to the method: as §2, §3
Locomotor activity was recorded with an Opto M3 multichannel activity monitor (Columbus Instruments, Columbus, USA). […] According to the 3Rs recommendations,[54] locomotor activity was assessed for the minimal active doses obtained in FST and/or FPT to ensure that detected antidepressant-/anxiolytic-like effects are not the result of increased motility of mice.

A further series concerns punished crossings. Description: Four-plate test (FPT) in mice. Particulars: i.p., all doses tested. It counts as in vivo. As to the method: as §2, §3
The four-plate apparatus (Bioseb, Pinellas Park, USA) was used for tests. Following a 15 s habituation period, the animal’s motivation to explore a novel environment is suppressed by an electric foot shock (0.8 mA, 0.5 s) every time it moves from one plate to another during a 1 min test session. This action is referred to as a “punished crossing” and is followed by a 3 s shock interval, during which the animal can move across plates without receiving a shock.[53]

The next series concerns GABA (non-specific). Briefly: GABA (non-specific) binding screening at 1 µM (Eurofins Cerep). As to the method:
as §4, §5, §6, §7, §8, §9, §10, §11, §12, §13

The target of the next series is 5-HT7R (Homo sapiens, UniProt P34969). Description: Radioligand binding assay, [3H]-5-CT displacement. Particulars: mean ± SD from two independent measurements; read-out: Ki 5-HT7. As to the method: as §1
Chain of 5-HT7R (P34969 1-432): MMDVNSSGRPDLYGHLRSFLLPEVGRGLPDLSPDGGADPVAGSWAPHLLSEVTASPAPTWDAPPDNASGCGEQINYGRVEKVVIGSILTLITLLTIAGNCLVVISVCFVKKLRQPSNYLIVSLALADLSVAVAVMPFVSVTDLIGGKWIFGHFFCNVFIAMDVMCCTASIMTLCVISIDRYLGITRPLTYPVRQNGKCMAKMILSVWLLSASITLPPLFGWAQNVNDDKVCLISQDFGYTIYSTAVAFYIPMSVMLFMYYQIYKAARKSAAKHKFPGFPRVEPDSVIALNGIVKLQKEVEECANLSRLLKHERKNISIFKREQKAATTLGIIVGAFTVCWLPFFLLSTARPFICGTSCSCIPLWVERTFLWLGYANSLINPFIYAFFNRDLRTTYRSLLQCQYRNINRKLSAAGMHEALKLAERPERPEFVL

Chain of 5-HT2AR (P28223 whole entry): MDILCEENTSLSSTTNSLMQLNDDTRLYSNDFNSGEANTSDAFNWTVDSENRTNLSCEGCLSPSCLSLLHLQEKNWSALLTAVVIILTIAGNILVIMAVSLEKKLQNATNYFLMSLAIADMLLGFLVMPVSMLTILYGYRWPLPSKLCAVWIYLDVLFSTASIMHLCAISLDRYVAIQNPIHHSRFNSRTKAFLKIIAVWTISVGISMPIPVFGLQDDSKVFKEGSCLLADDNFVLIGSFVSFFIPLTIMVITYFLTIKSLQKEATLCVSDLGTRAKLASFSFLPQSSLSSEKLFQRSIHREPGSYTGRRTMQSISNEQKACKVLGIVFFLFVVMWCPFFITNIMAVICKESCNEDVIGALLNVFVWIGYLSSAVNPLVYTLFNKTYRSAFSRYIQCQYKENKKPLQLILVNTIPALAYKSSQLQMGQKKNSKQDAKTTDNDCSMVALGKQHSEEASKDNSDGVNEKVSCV
T2 sequence (P25103 whole entry): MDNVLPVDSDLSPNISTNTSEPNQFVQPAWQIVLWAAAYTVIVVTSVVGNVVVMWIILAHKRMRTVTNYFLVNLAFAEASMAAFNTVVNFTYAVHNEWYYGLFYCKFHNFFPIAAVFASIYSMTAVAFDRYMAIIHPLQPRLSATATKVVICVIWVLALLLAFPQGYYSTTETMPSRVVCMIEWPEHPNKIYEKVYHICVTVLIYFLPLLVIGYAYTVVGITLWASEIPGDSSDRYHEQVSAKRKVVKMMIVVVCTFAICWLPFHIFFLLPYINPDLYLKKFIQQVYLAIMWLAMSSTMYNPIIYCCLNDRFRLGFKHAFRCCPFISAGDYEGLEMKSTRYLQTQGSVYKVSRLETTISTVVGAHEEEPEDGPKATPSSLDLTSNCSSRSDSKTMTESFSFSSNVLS

A word on the Ki: it is the dissociation constant of the complex between target and ligand, obtained from inhibition or displacement. With `COc1ccccc1N1CCN(C[C@H](O)CN2C(=O)N[C@](C)(c3ccc(F)cc3)C2=O)CC1` [Compound 5.1, (R)-5-(4-Fluorophenyl)-3-((S)-2-hydroxy-3-(4-(2-methoxyphenyl)piperazin-1-yl)propyl)-5-methylimidazolidine-2,4-dione], the figures for the Ki at 5-HT1AR and at dopamine D2LR were 939 ± 153 nM and 462 ± 94 nM, respectively.
By inhibition is commonly meant the change of the read-out against control, counted positive when it falls. Take `COc1ccccc1N1CCN(C[C@@H](O)CN2C(=O)N[C@@](C)(c3ccc(F)cc3)C2=O)CC1` [Compound 5.4, (S)-5-(4-Fluorophenyl)-3-((R)-2-hydroxy-3-(4-(2-methoxyphenyl)piperazin-1-yl)propyl)-5-methylimidazolidine-2,4-dione]: the Ki at 5-HT2AR was 21800 nM; on 5-HT1AR it was 306 ± 71 nM; on dopamine D2LR, 888 ± 97 nM. Besides, the “decrease of immobility time vs vehicle” value with immobility time (5 mg/kg i.p.) was 25%; with immobility time (10 mg/kg i.p.), 20%. Further, the inhibition at 1 µM at NK1 amounted to 2.9%. Further, the “locomotor activity number of crossings ± SEM during 3–6 min” value with locomotor activity (5 mg/kg i.p.) is recorded as 138.75 ± 36.61; NS. Also, the “locomotor activity number of crossings ± SEM during 1 min” value in the series on locomotor activity (5 mg/kg i.p.) was 18.50 ± 8.00; NS. For the same molecule, the “locomotor activity number of crossings ± SEM during 60 min” value in the series with locomotor activity (5 mg/kg i.p.) is given as 716.25 ± 117.75; p < 0.001. Also, in the series with punished crossings, the anxiolytic-like activity result was “inactive”. In the series with GABA (non-specific), the “GABA (non-specific) % of inhibition of control specific binding” value turned out to be 7%.
`COc1ccccc1N1CCN(C[C@H](O)CN2C(=O)N[C@@](C)(c3ccc(F)cc3)C2=O)CC1` [Compound 5.3, (S)-5-(4-Fluorophenyl)-3-((S)-2-hydroxy-3-(4-(2-methoxyphenyl)piperazin-1-yl)propyl)-5-methylimidazolidine-2,4-dione]: the Ki worked out at 219 ± 43 nM on 5-HT1AR and 1110 ± 137 nM on dopamine D2LR.
With `COc1ccccc1N1CCN(C[C@@H](O)CN2C(=O)N[C@](C)(c3ccc(F)cc3)C2=O)CC1` [Compound 5.2, (R)-5-(4-Fluorophenyl)-3-((R)-2-hydroxy-3-(4-(2-methoxyphenyl)piperazin-1-yl)propyl)-5-methylimidazolidine-2,4-dione], the Ki on 5-HT2AR is 41100 nM; on 5-HT1AR, 1880 ± 351 nM; at dopamine D2LR, 712 ± 101 nM.
Consider `C[C@]1(c2ccc(F)cc2)NC(=O)N(C[C@@H](O)CN2CCN(C(c3ccccc3)c3ccccc3)CC2)C1=O` [Compound 6.1, (R)-3-((S)-3-(4-Benzhydrylpiperazin-1-yl)-2-hydroxypropyl)-5-(4-fluorophenyl)-5-methylimidazolidine-2,4-dione], for which the values for the Ki on 5-HT2AR, at 5-HT7R and at dopamine D2LR were 12300 nM, 2900 ± 461 nM and 463 ± 75 nM, respectively.
The matching figures for `C[C@]1(c2ccc(F)cc2)NC(=O)N(C[C@H](O)CN2CCN(C(c3ccccc3)c3ccccc3)CC2)C1=O` [Compound 6.2, (R)-3-((R)-3-(4-Benzhydrylpiperazin-1-yl)-2-hydroxypropyl)-5-(4-fluorophenyl)-5-methylimidazolidine-2,4-dione]: 11400 nM, 9090 ± 1700 nM and 1520 ± 331 nM.
The corresponding values for `C[C@@]1(c2ccc(F)cc2)NC(=O)N(C[C@@H](O)CN2CCN(C(c3ccccc3)c3ccccc3)CC2)C1=O` [Compound 6.3, (S)-3-((S)-3-(4-Benzhydrylpiperazin-1-yl)-2-hydroxypropyl)-5-(4-fluorophenyl)-5-methylimidazolidine-2,4-dione] are 4130 ± 983 nM, 120 ± 27 nM and 312 ± 52 nM.
In the case of `COc1ccccc1N1CCN(CC(O)CN2C(=O)NC(C)(c3ccc(F)cc3)C2=O)CC1` (stereo not shown) [Compound 1], the “decrease of immobility time vs vehicle” value is “about 32%” in the series with immobility time (2.5 mg/kg i.p.) and about 25% in the series with immobility time (5 mg/kg i.p.). Also, the Ki at 5-HT1AR was found to be 121 ± 18 nM; at dopamine D2LR it was 715 ± 163 nM. In the series with locomotor activity (2.5 mg/kg i.p.), the “locomotor activity number of crossings ± SEM during 1 min” value is reported as 10.50 ± 4.11; NS. In addition, the “locomotor activity number of crossings ± SEM during 60 min” value in the series on locomotor activity (2.5 mg/kg i.p.) is listed as 183.75 ± 33.41; p < 0.001. In addition, the anxiolytic-like activity result in the series with punished crossings is “inactive”.

The values are drawn from publication PMC11587507, “The Importance of Stereochemistry in 5-HT7R Modulation—A Case Study of Hydantoin Derivatives” (ACS Chemical Neuroscience, 2024).
